Source: patent US7423026B2, “Methylated cyclodextrin complexes” (PediPharm Oy, priority 2002, dated 2008)

Columns and labels:
[1] = Aqueous phase-solubility study of cannabinoids with RM-β-CD; assay type: physicochemical; settings: for complexation constant for 1:1 inclusion complex, K1:1 / complexation constant for 1:2 inclusion complex, K1:2: with RM-β-CD, calculated from Ap-type phase-solubility diagram
Description: (§1) AU the phase-solubility diagrams (cannabinoid concentration as a function of CD concentration) are Ap-type (Higuchi and Connors 1965) and calculated complexation constants for 1:1 and 1:2 inclusion complexes has been shown in Table 1.

[2] = Aqueous phase-solubility study of cannabinoids with HP-β-CD; assay type: physicochemical; settings: calculated from Ap-type phase-solubility diagram
Description: as §1

[3] = Dissolution studies of CBD formulations in 2% RM-β-CD dissolution media (pH 6.6); assay type: physicochemical; settings: gelatine capsule, 1.0 mg pure CBD and 99 mg lactose, without RM-β-CD, 2% RM-β-CD media
[4] = oral administration, depending on the drug vehicle; cited from earlier work
[5] = Aqueous solubility of THC in HP-β-CD solution (Jarho et al.); assay type: physicochemical; settings: calculated from Jarho et al.
Experimental: Compared to earlier findings, methylated β-CD improves the aqueous solubility of cannabinoids more efficiently, imparting promising dissolution properties for cannabinoids. […] However, the complexation of cannabinoids with methylated β-CD is more efficient compared to HP-β-CD.
As discussed above, the bioavailability of THC is 6-20% after oral administration. THC is commercially available as a capsule containing 5-10 mg of THC (Marinol). […] Thus, it can be calculated that 2 g of HP-β-CD is needed to establish a dosage form containing 5 mg of complexed THC. This is an amount that is too much for tablet formulations. According to the invention it has now been shown that the same amount of THC can be complexed with 200 mg of RM-β-CD.

[6] = 40% solution of HP-β-CD; cited from earlier work
[7] = Dissolution studies of THC formulations in 2% RM-β-CD dissolution media (pH 6.6); assay type: physicochemical; settings: gelatine capsule, 1.0 mg pure THC and 99 mg lactose, without RM-β-CD, 2% RM-β-CD media

Row | Compound | complexation constant for 1:1 inclusion complex, K1:1 [1] | complexation constant for 1:2 inclusion complex, K1:2 [1] | complexation constant for 1:1 inclusion complex, K1:1 [2] | complexation constant for 1:2 inclusion complex, K1:2 [2] | time until CBD is fully dissolved [3] | amount of RM-β-CD to prepare the same formulation (1 mg of THC) ([1]; 1 mg of THC) | amount of RM-β-CD that complexes 5 mg of THC ([1]; same amount of THC (5 mg)) | bioavailability [4] | amount of HP-β-CD needed for a dosage form containing 5 mg of complexed THC [5] | amount of HP-β-CD needed to complex 1 mg of THC [5] | concentration of THC solution obtained [6] | time until THC is fully dissolved [7]
1 | C=C(C)[C@@H]1CCC(C)=C[C@H]1c1c(O)cc(CCCCC)cc1O [CBD, cannabidiol] | 484 145 M^−1 | 8 M⁻¹ | 13 844 M^−1 | 62 M⁻¹ | 3 h |  |  |  |  |  |  | 
2 | CCCCCc1cc(O)c2c(c1)OC(C)(C)[C@@H]1CCC(C)=C[C@@H]21 [THC, Δ^9-tetrahydrocannabinol] | 19 563 M^−1 | 38 M⁻¹ | 4 222 M^−1 | 58 M⁻¹ |  | 25.7 mg | 200 mg | 6-20% | 2 g | 400 mg | 1000 µg/mL | 1 h
